Assay results: patent US8575091B1, “Amylin analogues and pharmaceutical compositions thereof” (Novo Nordisk A/S, priority 2012, dated 2013)
Read-outs that look alike come from different tables or passages of the source. Numbered stars: 1 amine (or outer) side, 2 acyl side, 3 side chain; on linkers, the order of the positions; unused ones are H or OH. Bridge positions count the residues as written; N and C are the ends. Side chains are listed from the residue outwards. Peptide text beside a SMILES is read from it. * marks the point of attachment. C20 diacid = O=C(O)CCCCCCCCCCCCCCCCCCC(=O)*; γGlu = O=C(O)[C@H](CCC(=O)[*:2])N[*:1]; AEEA = NCCOCCOCC(=O)O

Assays:
human amylin receptor = biological target: T1, human amylin receptor (Homo sapiens, UniProt O60896+P30988); assay: Assay (V) binding to the human amylin receptor (SPA, 125I-rat amylin); conditions: human amylin receptor membranes, SPA; read-out: hAmylin-R bind IC50
T1 construct: expressed in transfected cells
T1 sequence (P30988 25-474): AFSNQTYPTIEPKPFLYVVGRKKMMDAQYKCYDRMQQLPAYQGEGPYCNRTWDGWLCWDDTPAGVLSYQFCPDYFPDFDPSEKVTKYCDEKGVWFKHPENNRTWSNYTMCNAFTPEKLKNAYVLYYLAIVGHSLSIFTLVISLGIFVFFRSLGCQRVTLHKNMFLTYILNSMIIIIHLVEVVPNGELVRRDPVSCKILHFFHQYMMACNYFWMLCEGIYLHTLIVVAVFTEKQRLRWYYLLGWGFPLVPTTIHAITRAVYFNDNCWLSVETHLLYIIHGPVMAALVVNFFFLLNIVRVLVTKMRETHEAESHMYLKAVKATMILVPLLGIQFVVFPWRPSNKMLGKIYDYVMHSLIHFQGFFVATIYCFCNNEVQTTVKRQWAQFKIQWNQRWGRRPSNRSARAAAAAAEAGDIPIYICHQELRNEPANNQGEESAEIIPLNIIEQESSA
T1 sequence (O60896 24-148 partner): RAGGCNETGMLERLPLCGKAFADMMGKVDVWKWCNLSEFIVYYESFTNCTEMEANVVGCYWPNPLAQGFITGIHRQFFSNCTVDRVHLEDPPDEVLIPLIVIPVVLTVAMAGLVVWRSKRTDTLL
Method in brief: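 IC50, taken as receptor affinity, came from one-site binding competition analysis of scintillation proximity counts. Amylin 3(a)/CRE-luc cell membranes (35 ng/μL final) were mixed with SPA beads (0.05 mg/well) in 50 mM Hepes pH 7.4 containing CaCl2, MgCl2, 0.1% OA and 0.02% Tween20.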

[1] = biological target: T2, human amylin receptor (amylin 3(a) receptor: human calcitonin receptor + RAMP-3) (Homo sapiens, UniProt O60896+P30988); assay: Assay (II)a functional assay, human amylin receptor (CRE luciferase, BHK cells); type: cell-based; conditions: for EC50: read-out: hAmylin-R funct. EC50
T2 construct: expressed in transfected cells
T2 sequence (P30988 25-474): T1 sequence (P30988 25-474)
T2 sequence (O60896 24-148 partner): T1 sequence (O60896 24-148 partner)

[2] = biological target: T3, human calcitonin receptor (Homo sapiens, UniProt P30988); assay: Assay (VII) binding to the human calcitonin receptor (SPA, 125I-Calcitonin); conditions: read-out: hCTR bind IC50;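 further: cell membranes coupled to SPA beads, competitive displacement read by scintillation counting, IC50 derived from a one-site competition fit as a measure of receptor affinity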
T3 construct: expressed in transfected cells
T3 sequence (P30988 25-474): T1 sequence (P30988 25-474)

[3] = biological target: T3, human calcitonin receptor; assay: Assay (II)a functional assay, human calcitonin receptor (CRE luciferase, BHK cells);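 further: luminescence from a CRE-driven luciferase reporter, read by single photon counting after cells were exposed to test samples for 3 h at 37 °C under 5% CO2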; type: cell-based; conditions: read-out: hCTR funct. EC50
[4] = Table 6, human functional selectivity (hCTR EC50 / hAmylin-R EC50)
[5] = Table 6a, human functional selectivity (hCTR EC50 / hAmylin-R EC50), at least 5
[6] = Table 6j, hCTR funct. EC50 / hAmylin-R funct. EC50
[7] = Table 6k, hCTR funct. EC50 / hAmylin-R funct. EC50
[8] = functional assay, human amylin receptor

Compound | IC50 (human amylin receptor) | Ratio hCT/hAmylin funct. [1, 4] | Ratio hCT/hAmylin funct. [1, 5] | Ratio hCT/hAmylin funct. [1, 6] | Ratio hCT/hAmylin funct. [1, 7] | EC50 [1, 8] | IC50 [2] | EC50 [3] | EC50 ([1]; Table 6j, human amylin receptor functional)
CC[C@H](C)[C@H](NC(=O)[C@H](C)NC(=O)CNC(=O)[C@H](Cc1ccccc1)NC(=O)[C@H](CC(N)=O)NC(=O)[C@@H]1CCCN1C(=O)[C@H](CO)NC(=O)[C@H](CO)NC(=O)[C@H](Cc1c[nH]cn1)NC(=O)[C@H](CCCNC(=N)N)NC(=O)[C@H](CC(C)C)NC(=O)[C@H](Cc1ccccc1)NC(=O)[C@H](CC(N)=O)NC(=O)[C@H](C)NC(=O)[C@H](CC(C)C)NC(=O)[C@H](CCCNC(=N)N)NC(=O)[C@H](CCC(N)=O)NC(=O)[C@@H](NC(=O)[C@H](C)NC(=O)[C@@H]1CSSC[C@H](NC(=O)[C@H](CCCNC(=N)N)NC(=O)[C@@H](N)CCCCNC(=O)COCCOCCNC(=O)CC[C@H](NC(=O)CCCCCCCCCCCCCCCCCCC(=O)O)C(=O)O)C(=O)N[C@@H](CC(N)=O)C(=O)N[C@@H]([C@@H](C)O)C(=O)N[C@@H](C)C(=O)N[C@@H]([C@@H](C)O)C(=O)N1)[C@@H](C)O)C(=O)N1CCC[C@H]1C(=O)N[C@@H](CO)C(=O)N[C@@H](CO)C(=O)N[C@H](C(=O)N[C@@H](CC(N)=O)C(=O)N[C@H](C(=O)NCC(=O)N[C@@H](CO)C(=O)N[C@@H](Cc1c[nH]cn1)C(=O)N[C@H](C(=O)N[C@@H](Cc1ccc(O)cc1)C(N)=O)[C@@H](C)O)C(C)C)[C@@H](C)O [Example 45] (H-K([AEEA-γGlu-C20 diacid])RCNTATCATQRLANFLRHSSPNFGAIPSSTNVGSHTY-NH2; disulfide 3-8) | 0.552 nM | 17.0 | 17.0 | 17.0 | 17.0 | 0.594 nM | 14.8 nM | 10.1 nM | 
CC[C@H](C)[C@H](NC(=O)[C@H](C)NC(=O)CNC(=O)[C@H](Cc1ccccc1)NC(=O)[C@H](CC(N)=O)NC(=O)[C@@H]1CCCN1C(=O)[C@H](CO)NC(=O)[C@H](CO)NC(=O)[C@H](Cc1c[nH]cn1)NC(=O)[C@H](CCCNC(=N)N)NC(=O)[C@H](CC(C)C)NC(=O)[C@H](Cc1ccccc1)NC(=O)[C@H](CC(N)=O)NC(=O)[C@H](C)NC(=O)[C@H](CC(C)C)NC(=O)[C@H](CCCNC(=N)N)NC(=O)[C@H](CCC(N)=O)NC(=O)[C@@H](NC(=O)[C@H](C)NC(=O)[C@@H]1CSSC[C@H](NC(=O)[C@H](CCCNC(=N)N)NC(=O)CNC(=O)CC[C@H](NC(=O)CCCCCCCCCCCCCCCCCCC(=O)O)C(=O)O)C(=O)N[C@@H](CC(N)=O)C(=O)N[C@@H]([C@@H](C)O)C(=O)N[C@@H](C)C(=O)N[C@@H]([C@@H](C)O)C(=O)N1)[C@@H](C)O)C(=O)N1CCC[C@H]1C(=O)N[C@@H](CO)C(=O)N[C@@H](CO)C(=O)N[C@H](C(=O)N[C@@H](CC(N)=O)C(=O)N[C@H](C(=O)NCC(=O)N[C@@H](CO)C(=O)N[C@@H](CC(N)=O)C(=O)N[C@H](C(=O)N[C@@H](Cc1ccc(O)cc1)C(N)=O)[C@@H](C)O)C(C)C)[C@@H](C)O [Example 46] ({C20 diacid-γGlu}-GRCNTATCATQRLANFLRHSSPNFGAIPSSTNVGSNTY-NH2; disulfide 3-8) | 0.195 nM |  |  |  |  | 0.088 nM | 9.53 nM | 0.899 nM | 
CC[C@H](C)[C@H](NC(=O)[C@H](C)NC(=O)CNC(=O)[C@H](Cc1ccccc1)NC(=O)[C@H](CC(N)=O)NC(=O)[C@@H]1CCCN1C(=O)[C@H](CO)NC(=O)[C@H](CO)NC(=O)[C@H](Cc1c[nH]cn1)NC(=O)[C@H](CCCNC(=N)N)NC(=O)[C@H](CC(C)C)NC(=O)[C@H](Cc1ccccc1)NC(=O)[C@H](CC(N)=O)NC(=O)[C@H](C)NC(=O)[C@H](CC(C)C)NC(=O)[C@H](CCCNC(=N)N)NC(=O)[C@H](CCC(N)=O)NC(=O)[C@@H](NC(=O)[C@H](C)NC(=O)[C@@H]1CSSC[C@H](NC(=O)[C@H](CCCNC(=N)N)NC(=O)CNC(=O)CC[C@H](NC(=O)CCCCCCCCCCCCCCCCCCC(=O)O)C(=O)O)C(=O)N[C@@H](CC(N)=O)C(=O)N[C@@H]([C@@H](C)O)C(=O)N[C@@H](C)C(=O)N[C@@H]([C@@H](C)O)C(=O)N1)[C@@H](C)O)C(=O)N1CCC[C@H]1C(=O)N[C@@H](CO)C(=O)N[C@@H](CO)C(=O)N[C@H](C(=O)N[C@@H](CC(N)=O)C(=O)N[C@H](C(=O)NCC(=O)N[C@@H](CO)C(=O)N[C@@H](Cc1c[nH]cn1)C(=O)N[C@H](C(=O)N[C@@H](Cc1ccc(O)cc1)C(N)=O)[C@@H](C)O)C(C)C)[C@@H](C)O [Example 47] ({C20 diacid-γGlu}-GRCNTATCATQRLANFLRHSSPNFGAIPSSTNVGSHTY-NH2; disulfide 3-8) | 0.344 nM | 6.0 | 6.0 | 6.0 | 6.0 | 0.222 nM | 15.5 nM | 1.32 nM | 
CC[C@H](C)[C@H](NC(=O)[C@H](C)NC(=O)CNC(=O)[C@H](Cc1ccccc1)NC(=O)[C@H](CC(N)=O)NC(=O)[C@@H]1CCCN1C(=O)[C@H](CO)NC(=O)[C@H](CO)NC(=O)[C@H](Cc1c[nH]cn1)NC(=O)[C@H](CCCNC(=N)N)NC(=O)[C@H](CC(C)C)NC(=O)[C@H](Cc1ccccc1)NC(=O)[C@H](CC(N)=O)NC(=O)[C@H](C)NC(=O)[C@H](CC(C)C)NC(=O)[C@H](CCCNC(=N)N)NC(=O)[C@H](CCC(N)=O)NC(=O)[C@@H](NC(=O)[C@H](C)NC(=O)[C@@H]1CSSC[C@H](NC(=O)[C@@H](N)CCCCNC(=O)COCCOCCNC(=O)CC[C@H](NC(=O)CCCCCCCCCCCCCCCCCCC(=O)O)C(=O)O)C(=O)N[C@@H](CC(N)=O)C(=O)N[C@@H]([C@@H](C)O)C(=O)N[C@@H](C)C(=O)N[C@@H]([C@@H](C)O)C(=O)N1)[C@@H](C)O)C(=O)N1CCC[C@H]1C(=O)N[C@@H](CO)C(=O)N[C@@H](CO)C(=O)N[C@H](C(=O)N1CCC[C@H]1C(=O)N[C@H](C(=O)NCC(=O)N[C@@H](CO)C(=O)N[C@@H](CC(N)=O)C(=O)N[C@H](C(=O)N[C@@H](Cc1ccc(O)cc1)C(N)=O)[C@@H](C)O)C(C)C)[C@@H](C)O [Example 49] | 1.19 nM |  |  |  |  | 0.106 nM | 12.9 nM | 2.39 nM | 
CC[C@H](C)[C@H](NC(=O)[C@H](C)NC(=O)CNC(=O)[C@H](Cc1ccccc1)NC(=O)[C@H](CC(N)=O)NC(=O)[C@@H]1CCCN1C(=O)[C@H](CO)NC(=O)[C@H](CO)NC(=O)[C@H](Cc1c[nH]cn1)NC(=O)[C@H](CCCNC(=N)N)NC(=O)[C@H](CC(C)C)NC(=O)[C@H](Cc1ccccc1)NC(=O)[C@H](CC(N)=O)NC(=O)[C@H](C)NC(=O)[C@H](CC(C)C)NC(=O)[C@H](CCCNC(=N)N)NC(=O)[C@H](CCC(N)=O)NC(=O)[C@@H](NC(=O)[C@H](C)NC(=O)[C@@H]1CSSC[C@H](NC(=O)[C@@H](N)CCCCNC(=O)COCCOCCNC(=O)CC[C@H](NC(=O)CCCCCCCCCCCCCCCCCCC(=O)O)C(=O)O)C(=O)N[C@@H](CC(N)=O)C(=O)N[C@@H]([C@@H](C)O)C(=O)N[C@@H](C)C(=O)N[C@@H]([C@@H](C)O)C(=O)N1)[C@@H](C)O)C(=O)N1CCC[C@H]1C(=O)N1CCC[C@H]1C(=O)N[C@@H](CO)C(=O)N[C@H](C(=O)N1CCC[C@H]1C(=O)N[C@H](C(=O)NCC(=O)N[C@@H](CO)C(=O)N[C@@H](CC(N)=O)C(=O)N[C@H](C(=O)N[C@@H](Cc1ccc(O)cc1)C(N)=O)[C@@H](C)O)C(C)C)[C@@H](C)O [Example 53] (H-K([AEEA-γGlu-C20 diacid])CNTATCATQRLANFLRHSSPNFGAIPPSTPVGSNTY-NH2; disulfide 2-7) | 0.052 nM | 9.8 | 9.8 | 9.8 | 9.8 |  | 5.38 nM | 0.625 nM | 0.064 nM
